Laboratory results taken from article PMC4505863 (ACS Chemical Neuroscience, 2014).

Key:
5-HT2A receptor [1] = biological target: T1, 5-HT2A receptor (Homo sapiens, UniProt P28223); experiment: h5-HT2A affinity, antagonist radioligand [3H]ketanserin; type: binding
5-HT2A receptor [2] = biological target: T1, 5-HT2A receptor; experiment: h5-HT2A affinity, agonist radioligand [125I]DOI; type: binding
human 5-HT2C receptor [3] = biological target: T2, human 5-HT2C receptor (Homo sapiens, UniProt P28335); experiment: h5-HT2C affinity, antagonist radioligand [3H]mesulergine; type: binding
T2 sequence (P28335 33-458): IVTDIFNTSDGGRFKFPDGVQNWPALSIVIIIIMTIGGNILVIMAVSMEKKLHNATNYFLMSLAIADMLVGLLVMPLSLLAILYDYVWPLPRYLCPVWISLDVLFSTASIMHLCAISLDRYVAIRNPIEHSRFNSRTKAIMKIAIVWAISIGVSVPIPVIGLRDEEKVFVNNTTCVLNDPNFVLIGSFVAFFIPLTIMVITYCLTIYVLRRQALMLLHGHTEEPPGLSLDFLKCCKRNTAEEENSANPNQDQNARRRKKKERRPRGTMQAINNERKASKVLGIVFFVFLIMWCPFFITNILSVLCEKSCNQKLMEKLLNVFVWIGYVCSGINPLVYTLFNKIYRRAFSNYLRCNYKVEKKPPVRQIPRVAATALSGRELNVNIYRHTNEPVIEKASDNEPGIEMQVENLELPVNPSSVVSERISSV

human 5-HT2C receptor [4] = biological target: T2, human 5-HT2C receptor; experiment: h5-HT2C affinity, agonist radioligand [125I]DOI; type: binding
5-HT2B = 5-HT2B (Homo sapiens, UniProt P41595); experiment: PDSP screening affinity 5-HT2B; type: binding
5-HT2B, sequence (P41595 whole entry): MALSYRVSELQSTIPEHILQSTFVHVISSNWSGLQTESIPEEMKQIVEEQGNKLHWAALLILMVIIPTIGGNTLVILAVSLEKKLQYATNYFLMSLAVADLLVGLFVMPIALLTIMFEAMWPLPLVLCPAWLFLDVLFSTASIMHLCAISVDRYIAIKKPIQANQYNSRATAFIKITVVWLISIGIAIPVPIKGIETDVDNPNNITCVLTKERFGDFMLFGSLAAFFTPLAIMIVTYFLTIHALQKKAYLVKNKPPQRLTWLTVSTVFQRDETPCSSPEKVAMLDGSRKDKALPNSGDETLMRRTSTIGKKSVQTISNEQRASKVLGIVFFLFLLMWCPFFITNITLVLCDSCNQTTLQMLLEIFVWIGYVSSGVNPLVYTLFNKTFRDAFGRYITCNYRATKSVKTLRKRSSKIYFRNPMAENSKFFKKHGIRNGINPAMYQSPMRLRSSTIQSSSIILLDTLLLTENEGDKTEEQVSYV

5-HT1A = biological target: T3, 5-HT1A (Homo sapiens, UniProt P08908); experiment: PDSP screening affinity 5-HT1A; type: binding; details: 5-HT1A affinity
T3 sequence (P08908 1-422): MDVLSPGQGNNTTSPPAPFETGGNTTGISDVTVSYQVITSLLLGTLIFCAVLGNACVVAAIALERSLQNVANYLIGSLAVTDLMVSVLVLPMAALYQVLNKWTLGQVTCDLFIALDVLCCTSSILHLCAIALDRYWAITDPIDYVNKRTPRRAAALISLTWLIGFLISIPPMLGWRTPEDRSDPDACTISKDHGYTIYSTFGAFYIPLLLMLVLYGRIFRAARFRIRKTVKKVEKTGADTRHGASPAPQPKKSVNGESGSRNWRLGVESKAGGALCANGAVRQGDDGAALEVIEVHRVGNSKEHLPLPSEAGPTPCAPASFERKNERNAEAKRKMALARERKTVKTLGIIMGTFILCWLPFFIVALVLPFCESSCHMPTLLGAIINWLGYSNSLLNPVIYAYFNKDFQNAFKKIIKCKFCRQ

5-HT1B = 5-HT1B (Homo sapiens, UniProt P28222); experiment: PDSP screening affinity 5-HT1B; type: binding; details: 5-HT1B affinity
5-HT1B, sequence (P28222 whole entry): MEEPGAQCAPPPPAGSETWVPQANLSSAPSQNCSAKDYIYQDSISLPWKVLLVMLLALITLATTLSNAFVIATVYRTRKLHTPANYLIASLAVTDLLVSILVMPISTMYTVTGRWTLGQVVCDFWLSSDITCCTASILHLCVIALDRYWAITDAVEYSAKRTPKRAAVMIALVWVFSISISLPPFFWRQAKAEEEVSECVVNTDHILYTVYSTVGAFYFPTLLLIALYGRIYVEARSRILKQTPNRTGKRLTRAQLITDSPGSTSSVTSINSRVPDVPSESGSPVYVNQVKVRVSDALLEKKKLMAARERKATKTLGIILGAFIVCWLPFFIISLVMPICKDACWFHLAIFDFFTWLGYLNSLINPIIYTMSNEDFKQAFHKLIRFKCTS

5-HT1D = 5-HT1D (Homo sapiens, UniProt P28221); experiment: PDSP screening affinity 5-HT1D; type: binding
5-HT1D, sequence (P28221 whole entry): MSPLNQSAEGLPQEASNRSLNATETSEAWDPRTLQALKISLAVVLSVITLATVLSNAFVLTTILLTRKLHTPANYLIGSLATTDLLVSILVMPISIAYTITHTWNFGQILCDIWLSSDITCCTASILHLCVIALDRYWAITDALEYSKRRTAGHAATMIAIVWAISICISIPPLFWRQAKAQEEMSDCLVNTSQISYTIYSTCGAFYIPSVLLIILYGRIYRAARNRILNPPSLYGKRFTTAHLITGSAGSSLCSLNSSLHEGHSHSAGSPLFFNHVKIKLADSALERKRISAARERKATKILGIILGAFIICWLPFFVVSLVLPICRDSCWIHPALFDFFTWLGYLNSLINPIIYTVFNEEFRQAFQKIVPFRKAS

5-ht1e = 5-ht1e (Homo sapiens, UniProt P28566); experiment: PDSP screening affinity 5-ht1e; type: binding
5-ht1e, sequence (P28566 whole entry): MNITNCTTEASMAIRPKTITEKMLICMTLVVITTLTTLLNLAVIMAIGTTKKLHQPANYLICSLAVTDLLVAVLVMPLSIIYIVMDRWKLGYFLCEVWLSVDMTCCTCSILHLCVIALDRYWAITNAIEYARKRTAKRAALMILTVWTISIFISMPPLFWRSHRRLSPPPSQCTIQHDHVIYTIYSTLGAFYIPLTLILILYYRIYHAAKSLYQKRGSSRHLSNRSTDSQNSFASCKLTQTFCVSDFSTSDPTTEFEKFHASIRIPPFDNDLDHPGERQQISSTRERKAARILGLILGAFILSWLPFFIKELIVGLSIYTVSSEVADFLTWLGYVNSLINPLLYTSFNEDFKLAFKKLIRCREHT

5-HT3 = biological target: T4, 5-HT3 (Homo sapiens, UniProt P46098); experiment: PDSP screening affinity 5-HT3; type: binding
T4 sequence (P46098 24-478): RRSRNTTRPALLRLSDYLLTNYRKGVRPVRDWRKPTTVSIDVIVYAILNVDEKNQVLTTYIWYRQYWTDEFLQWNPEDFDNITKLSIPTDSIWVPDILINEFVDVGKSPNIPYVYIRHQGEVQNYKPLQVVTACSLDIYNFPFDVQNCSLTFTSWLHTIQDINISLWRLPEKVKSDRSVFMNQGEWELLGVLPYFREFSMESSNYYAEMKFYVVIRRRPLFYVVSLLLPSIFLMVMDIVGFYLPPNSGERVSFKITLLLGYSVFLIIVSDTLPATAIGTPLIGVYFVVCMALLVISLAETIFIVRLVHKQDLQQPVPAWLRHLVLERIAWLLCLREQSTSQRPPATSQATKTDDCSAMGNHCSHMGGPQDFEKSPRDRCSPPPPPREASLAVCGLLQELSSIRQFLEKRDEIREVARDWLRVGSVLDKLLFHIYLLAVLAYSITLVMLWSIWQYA

5-ht5a = 5-ht5a (Homo sapiens, UniProt P47898); experiment: PDSP screening affinity 5-ht5a; type: binding; details: 5-ht5a affinity
5-ht5a, sequence (P47898 whole entry): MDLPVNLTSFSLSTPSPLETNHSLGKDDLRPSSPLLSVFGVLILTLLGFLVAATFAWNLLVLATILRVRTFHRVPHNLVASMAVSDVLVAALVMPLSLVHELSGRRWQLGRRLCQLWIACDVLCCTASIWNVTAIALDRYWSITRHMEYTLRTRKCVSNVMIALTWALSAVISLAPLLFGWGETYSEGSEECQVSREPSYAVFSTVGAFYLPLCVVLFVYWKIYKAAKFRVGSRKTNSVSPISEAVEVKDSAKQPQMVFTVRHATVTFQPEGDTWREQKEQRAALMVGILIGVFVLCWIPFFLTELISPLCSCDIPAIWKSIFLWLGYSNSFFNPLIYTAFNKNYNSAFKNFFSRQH

5-HT6 = 5-HT6 (Homo sapiens, UniProt P50406); experiment: PDSP screening affinity 5-HT6; type: binding
5-HT6, sequence (P50406 whole entry): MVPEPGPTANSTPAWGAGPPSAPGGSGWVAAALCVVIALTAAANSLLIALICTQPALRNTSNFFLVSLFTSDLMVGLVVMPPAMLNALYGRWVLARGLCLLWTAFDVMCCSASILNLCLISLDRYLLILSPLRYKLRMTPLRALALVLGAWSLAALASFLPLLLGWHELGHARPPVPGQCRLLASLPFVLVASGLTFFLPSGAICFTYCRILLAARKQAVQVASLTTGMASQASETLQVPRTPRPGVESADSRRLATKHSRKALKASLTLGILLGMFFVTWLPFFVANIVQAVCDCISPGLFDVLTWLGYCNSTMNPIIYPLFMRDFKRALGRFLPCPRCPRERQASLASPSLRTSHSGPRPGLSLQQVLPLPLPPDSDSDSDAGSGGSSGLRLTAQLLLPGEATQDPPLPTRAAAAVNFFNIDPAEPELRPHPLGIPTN

5-HT7 = 5-HT7 (Homo sapiens, UniProt P34969); experiment: PDSP screening affinity 5-HT7; type: binding
5-HT7, sequence (P34969 whole entry): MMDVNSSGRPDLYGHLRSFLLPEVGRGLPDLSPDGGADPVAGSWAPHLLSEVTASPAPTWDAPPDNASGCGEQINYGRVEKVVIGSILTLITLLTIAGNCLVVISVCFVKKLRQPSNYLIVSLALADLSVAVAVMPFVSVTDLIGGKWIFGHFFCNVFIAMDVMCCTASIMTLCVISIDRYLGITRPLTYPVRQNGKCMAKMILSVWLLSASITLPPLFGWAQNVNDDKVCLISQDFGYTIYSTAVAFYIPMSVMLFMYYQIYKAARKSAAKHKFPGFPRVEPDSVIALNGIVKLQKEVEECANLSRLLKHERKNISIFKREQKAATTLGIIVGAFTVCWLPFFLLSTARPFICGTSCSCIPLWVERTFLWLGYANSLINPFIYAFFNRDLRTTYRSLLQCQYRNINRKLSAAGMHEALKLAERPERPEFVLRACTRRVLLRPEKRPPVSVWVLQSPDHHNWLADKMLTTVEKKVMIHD

r5-HT2A = r5-HT2A (Rattus norvegicus, UniProt P14842); experiment: Ca2+ mobilization assay; type: cell-based; details: for EC50: r5-HT2A EC50, Ca2+ mobilization; for Emax: read-out: r5-HT2A Emax, percentage of the maximum response to 5-HT
r5-HT2A, sequence (P14842 whole entry): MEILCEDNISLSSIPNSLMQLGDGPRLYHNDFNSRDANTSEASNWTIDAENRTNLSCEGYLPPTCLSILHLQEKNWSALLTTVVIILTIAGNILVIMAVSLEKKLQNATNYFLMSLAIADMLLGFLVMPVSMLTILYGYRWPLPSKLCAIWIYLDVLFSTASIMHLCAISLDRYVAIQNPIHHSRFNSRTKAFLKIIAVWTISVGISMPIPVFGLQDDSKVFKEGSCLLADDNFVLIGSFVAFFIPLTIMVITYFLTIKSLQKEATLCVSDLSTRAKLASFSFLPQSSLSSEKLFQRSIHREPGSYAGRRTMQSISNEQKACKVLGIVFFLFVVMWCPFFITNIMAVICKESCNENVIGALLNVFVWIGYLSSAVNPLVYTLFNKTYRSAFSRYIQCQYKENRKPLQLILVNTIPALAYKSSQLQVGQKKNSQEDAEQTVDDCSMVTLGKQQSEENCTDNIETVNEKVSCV

h5-HT2A = h5-HT2A (Homo sapiens, UniProt P28223); experiment: Ca2+ mobilization assay; type: cell-based; details: for Emax: HEK293, read-out: h5-HT2A Emax, percentage of the maximum response to 5-HT
h5-HT2A, sequence (P28223 whole entry): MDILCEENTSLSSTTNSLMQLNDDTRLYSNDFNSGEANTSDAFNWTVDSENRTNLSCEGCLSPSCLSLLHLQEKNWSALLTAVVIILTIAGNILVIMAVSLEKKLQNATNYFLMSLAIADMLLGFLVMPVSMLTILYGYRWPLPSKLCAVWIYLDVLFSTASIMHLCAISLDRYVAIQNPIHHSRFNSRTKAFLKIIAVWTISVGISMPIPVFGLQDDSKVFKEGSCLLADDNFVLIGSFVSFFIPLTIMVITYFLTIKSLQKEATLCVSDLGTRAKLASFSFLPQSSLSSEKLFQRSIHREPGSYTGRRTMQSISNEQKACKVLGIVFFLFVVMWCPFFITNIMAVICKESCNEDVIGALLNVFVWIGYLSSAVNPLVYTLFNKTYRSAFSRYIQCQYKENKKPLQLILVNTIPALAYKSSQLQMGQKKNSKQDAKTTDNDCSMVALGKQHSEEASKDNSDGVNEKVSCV

h5-HT2B = h5-HT2B (Homo sapiens, UniProt P41595); experiment: Ca2+ mobilization assay; type: cell-based; details: for Emax: HEK293, read-out: h5-HT2B Emax
h5-HT2B, sequence (P41595 whole entry): as the sequence (P41595 whole entry) above

r5-HT2C = biological target: T5, r5-HT2C (Rattus norvegicus, UniProt P08909); experiment: Ca2+ mobilization assay; type: cell-based; details: for Emax: read-out: r5-HT2C Emax
T5 sequence (P08909 33-460): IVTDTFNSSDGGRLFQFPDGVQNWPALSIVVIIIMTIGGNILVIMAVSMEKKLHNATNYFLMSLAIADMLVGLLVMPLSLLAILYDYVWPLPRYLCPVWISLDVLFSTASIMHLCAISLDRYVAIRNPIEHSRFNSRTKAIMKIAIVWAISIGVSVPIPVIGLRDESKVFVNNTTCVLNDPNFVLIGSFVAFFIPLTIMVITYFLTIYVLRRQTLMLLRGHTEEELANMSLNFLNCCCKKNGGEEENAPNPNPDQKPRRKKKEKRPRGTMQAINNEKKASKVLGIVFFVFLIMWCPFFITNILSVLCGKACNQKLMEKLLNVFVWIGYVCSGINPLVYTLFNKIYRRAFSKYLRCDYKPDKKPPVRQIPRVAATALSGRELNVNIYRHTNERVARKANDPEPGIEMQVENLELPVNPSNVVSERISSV

h5-HT2C = biological target: T6, h5-HT2C (Homo sapiens, UniProt P28335); experiment: Ca2+ mobilization assay; type: cell-based; details: for Emax: HEK293, read-out: h5HT2C Emax; for EC50: h5HT2C EC50, Ca2+ mobilization
T6 sequence (P28335 33-458): T2 sequence (P28335 33-458)

Male C57BL/6J mice = experiment: Mouse head twitch response; details: for max counts: HTR counts; for max counts / activity in the HTR assay (active / inactive) / magnitude of peak effect × vehicle / maximally effective dose: SC; for ED50: Mus musculus, sc, read-out: ED50 mg/kg (95% CI), mouse head twitch; for activity in the HTR assay (active / inactive): doses up to 30 mg/kg; for magnitude of peak effect × vehicle / maximally effective dose: mouse head twitch
[5] = h5-HT2B EC50, Ca2+ mobilization
[6] = h5-HT2B pEC50 ± SEM, Ca2+ mobilization, NA = not active, Emax ≤ 15%
[7] = r5-HT2C EC50, Ca2+ mobilization
[8] = r5-HT2C pEC50 ± SEM, Ca2+ mobilization

T1 sequence (P28223 whole entry): as the sequence (P28223 whole entry) above

Row | SMILES | Ki (5-HT2A receptor [1]) [nM] | Ki (5-HT2A receptor [2]) [nM] | Ki (human 5-HT2C receptor [3]) [nM] | Ki (human 5-HT2C receptor [4]) [nM] | Ki (5-HT1A) [nM] | Ki (5-HT1B) [nM] | Ki (5-HT1D) [nM] | Ki (5-ht1e) [nM] | Ki (5-HT3) [nM] | Ki (5-ht5a) [nM] | Ki (5-HT6; 5-HT6 affinity) [nM] | Ki (5-HT7; 5-HT7 affinity) [nM] | EC50 (r5-HT2A) [nM] | Emax (r5-HT2A) [%] | EC50 (h5-HT2A) [nM] | Emax (h5-HT2A) [%] | Emax (h5-HT2B) [%] | Emax (r5-HT2C) [%] | Emax (h5-HT2C) [%] | EC50 (h5-HT2C) [nM] | other results
1 | COc1cc(CCNCc2ccccc2Br)c(OC)cc1I [Compound 4c, N-(2-Bromobenzyl)-2-(4-iodo-2,5-dimethoxyphenyl)ethan-1-amine] | 2.34 | 0.38 | 8.71 | 1.02 | 1160 | > 10000 | 423 | > 10000 | > 10000 | 2290 | 257 | 2550 | 36 | 65.6 ± 1.6 | 42 | 88 ± 1.5 | 83 ± 3 | 104 ± 1 | 87 ± 5 | 57.6 | Ki (5-HT2B; 5-HT2B affinity): 20 nM; EC50 (h5-HT2B; [5]): 134 nM; EC50 (h5-HT2B; [6]): 151 nM; EC50 (r5-HT2C; [7]): 105 nM; max counts (Male C57BL/6J mice): 23.2; ED50 (Male C57BL/6J mice): 2.31 mg/kg; activity in the HTR assay (active / inactive) (Male C57BL/6J mice): active; magnitude of peak effect × vehicle (Male C57BL/6J mice): 3.0 × vehicle; maximally effective dose (Male C57BL/6J mice): 10 mg/kg
2 | COc1ccc(CNCCc2c[nH]c3ccc(OC)cc23)cc1 [Compound 5c, N-(4-Methoxybenzyl)-2-(5-methoxy-1H-indol-3-yl)ethan-1-amine] | 69.2 | 10.5 | 126 | 14.1 | 76 | 1060 | 161 | > 10000 | > 10000 | 2390 | 353 | 37 | 190 | 75 ± 1.3 | 42 | 84.1 ± 1.3 | 81 ± 1 | 102 ± 2 | 112 ± 5 | 75.1 | Ki (5-HT2B; 5-HT2B affinity): 33 nM; Ki (5-HT2B; 5-HT2B pKi ± SEM): 32.4 nM; Ki (5-HT7; 5-HT7 pKi ± SEM): 36.3 nM; EC50 (h5-HT2B; [6]): 22.9 nM; EC50 (r5-HT2C; [8]): 18.6 nM; activity in the HTR assay (active / inactive) (Male C57BL/6J mice): None of the phenethylamines or tryptamines with 4-substituted N-benzyl groups, 4b, 4e, 5c, or 5f, was active
3 | COc1ccc2[nH]cc(CCNCc3cccc(SC)c3)c2c1 [Compound 5l, N-(3-Methylthiobenzyl)-2-(5-methoxy-1H-indol-3-yl)ethan-1-amine] | 8.91 | 3.09 | 13.2 | 2.09 | 127 | > 10000 | 659 | > 10000 | > 10000 | 841 | 9.7 | 136 | 120 | 32 ± 0.7 | 32 | 46.9 ± 0.8 | – | 101 ± 2 | 60 ± 4 | 283 | Ki (5-HT2B; 5-HT2B pKi ± SEM): 4.07 nM; EC50 (r5-HT2C; [7]): 205 nM
4 | COc1ccc2[nH]cc(CCNCc3cccc(F)c3)c2c1 [Compound 5g, N-(3-Fluorobenzyl)-2-(5-methoxy-1H-indol-3-yl)ethan-1-amine] | 21.4 | – | 47.9 | 8.71 | 295 | 2670 | 319 | > 10000 | > 10000 | 2450 | 59 | 242 | 80 | 69.1 ± 1.3 | 10 | 89.3 ± 1.1 | 37 ± 1 | 100 ± 3 | 83 ± 5 | 192 | Ki (5-HT2B; 5-HT2B pKi ± SEM): 21.9 nM; EC50 (h5-HT2B; [6]): 38 nM; EC50 (r5-HT2C; [7]): 46 nM; max counts (Male C57BL/6J mice): 14.5; ED50 (Male C57BL/6J mice): 3.33 mg/kg; magnitude of peak effect × vehicle (Male C57BL/6J mice): 7.3 × vehicle; maximally effective dose (Male C57BL/6J mice): 10 mg/kg
5 | COc1ccc2[nH]cc(CCNCc3cccc(C(F)(F)F)c3)c2c1 [Compound 5k, N-(3-Trifluoromethylbenzyl)-2-(5-methoxy-1H-indol-3-yl)ethan-1-amine] | 28.2 | 2.95 | 102 | 14.8 | 240 | > 10000 | 278 | > 10000 | > 10000 | 3090 | 87 | 262 | 770 | 69.6 ± 1.4 | 87 | 75.5 ± 1.2 | 51 ± 2 | 104 ± 2 | 75 ± 5 | 512 | Ki (5-HT2B; 5-HT2B pKi ± SEM): 27.5 nM; EC50 (h5-HT2B; [5]): 107 nM; EC50 (r5-HT2C; [7]): 162 nM
6 | COc1ccc2[nH]cc(CCNCc3cccc(Br)c3)c2c1 [Compound 5e, N-(3-Bromobenzyl)-2-(5-methoxy-1H-indol-3-yl)ethan-1-amine] | 6.76 | 1.48 | – | 5.62 | 155 | 6430 | 381 | > 10000 | > 10000 | 612 | 45 | 116 | 130 | 65.5 ± 0.8 | 13 | 73.8 ± 1.1 | 20 ± 2 | 112 ± 3 | 64 ± 8 | 321 | Ki (5-HT2B; 5-HT2B affinity): 3.6 nM; Ki (5-HT2B; 5-HT2B pKi ± SEM): 3.55 nM; Ki (5-HT6; 5-HT6 pKi ± SEM): 45.7 nM; Ki (5-HT7; 5-HT7 pKi ± SEM): 117 nM; EC50 (h5-HT2B; [5]): 29 nM; EC50 (r5-HT2C; [7]): 422 nM; EC50 (r5-HT2C; [8]): 417 nM; max counts (Male C57BL/6J mice): 14.2; ED50 (Male C57BL/6J mice): 5.18 mg/kg; activity in the HTR assay (active / inactive) (Male C57BL/6J mice): active; magnitude of peak effect × vehicle (Male C57BL/6J mice): 4.4 × vehicle; maximally effective dose (Male C57BL/6J mice): 30 mg/kg
